Results published in article PMC4585962, “A peptide factor secreted by Staphylococcus pseudintermedius exhibits properties of both bacteriocins and virulence factors” (Scientific Reports, 2015).
Entries after “also recorded” stand apart in the source; their conditions may differ. No end group written: not given here. *: point of attachment. For = O=C*

Columns and labels:
E. coli DH5α (pALCP2G) = assay: GFP release assay; assay type: cell-based, Escherichia coli; conditions: 2 × 10^6 CFU in PBS, 1 h 37 °C, 0.23 to 15 μM BacSp222, fluorescence of supernatant 480/510 nm
Method: The bacteria transformed with GFP-encoding plasmids (pCN68[59] for S. aureus RN4220; pALCP2G[60] for B. subtilis 1A751[61] and E. coli DH5α) were grown overnight in TSB supplemented with appropriate antibiotics, washed twice and finally suspended in PBS. Fifty microliters of the suspensions containing 2 × 10^6 CFU of bacteria were then incubated for 1 h at 37 °C with serial dilutions of BacSp222 at concentrations ranging from 0.23 to 15 μM. Then, the bacteria were spun down, and the fluorescence in the supernatant was determined (Synergy H1 microplate reader, BioTek, 480/510 nm excitation/emission wavelengths). As the controls for 100% GFP release, S. aureus and B. subtilis were lysed using lysostaphin and chicken egg white lysozyme (Sigma), respectively, whereas the E. coli cells were disrupted by ultrasonication.

[1] = Temperature stability, residual bactericidal activity; assay type: physicochemical; conditions: 30 μM in PBS, full cycle of autoclaving, 20 min at 121 °C; radial diffusion assay on B. subtilis; 100% = untreated BacSp222; triplicate ± SD
Method: (§1) The bactericidal activity of BacSp222 was also determined using the radial diffusion assay. In TSB agar (1%, w/v) containing a 200× diluted overnight culture of Bacillus subtilis ATCC 6633, wells of 2.4-mm diameter were created by drilling out the agar and filling the hole with 10 μl of the BacSp222 preparation for testing. Following overnight incubation at 37 °C, the bactericidal activity was measured as the area of the inhibition zones.
(§2) The temperature stability of BacSp222 (30 μM final concentration) was determined in PBS. The solution was incubated for 1 or 3 h at 72 °C (typical temperature of pasteurization) or at 100 °C. Independently, a solution of bacteriocin was also subjected to a full cycle of autoclaving (20 min at 121 °C). The susceptibility of BacSp222 to proteolysis was verified using S. aureus staphopain C and V8 peptidase, human neutrophil elastase, human cathepsin G (Biocentrum), bovine TPCK-treated trypsin, pepsin from porcine gastric mucosa (Sigma), and proteinase K (A&A Biotechnology). […] The residual activity was determined with the radial diffusion assay using Bacillus subtilis as an indicator strain. […]

[2] = Hydrodynamic diameter by dynamic light scattering; assay type: physicochemical; conditions: 0.2 mg/ml in PBS, room temperature, filtered 0.2 μm, average of three independent measurements; suggests elongated shape or dimers
Method: The hydrodynamic diameter of the BacSp222 molecule was determined at room temperature by the dynamic light scattering (DLS) technique using a Zetasizer Nano ZS apparatus (Malvern Instruments); a 0.2 mg/ml solution of the peptide in phosphate buffered saline (PBS) was used for analysis. Prior to measurements, the solution was filtered through a 0.2 μm bioinert membrane (Sigma). The obtained spectra were averaged over three independent measurements. The size of BacSp222 was also evaluated by gel filtration chromatography using a Superdex Peptide 10/300 GL column (GH Healthcare) operated in PBS with a 0.3 ml/min flow rate.

staphopain C (StpC) = assay: Susceptibility to proteolysis, residual bactericidal activity; assay type: in vitro ADME, S. aureus; conditions: 30 μM peptide, 100 mM Tris-HCl pH 7.5 with 5 mM cysteine hydrochloride and 5 mM EDTA, enzyme:peptide 1:50 or 1:10 (w/w), 3 hours, 37 °C; residual activity by radial diffusion assay on B. subtilis; triplicate
Method: as §1, §2

V8 peptidase = target: T1, V8 peptidase (Staphylococcus aureus, UniProt P0C1U8); assay: as above; assay type: in vitro ADME, S. aureus; conditions: 30 μM peptide, 100 mM sodium phosphate pH 7.8, enzyme:peptide 1:50 or 1:10 (w/w), 3 hours, 37 °C; residual activity by radial diffusion assay on B. subtilis; triplicate
T1 construct: purchased Biocentrum
T1 sequence (P0C1U8 69-336): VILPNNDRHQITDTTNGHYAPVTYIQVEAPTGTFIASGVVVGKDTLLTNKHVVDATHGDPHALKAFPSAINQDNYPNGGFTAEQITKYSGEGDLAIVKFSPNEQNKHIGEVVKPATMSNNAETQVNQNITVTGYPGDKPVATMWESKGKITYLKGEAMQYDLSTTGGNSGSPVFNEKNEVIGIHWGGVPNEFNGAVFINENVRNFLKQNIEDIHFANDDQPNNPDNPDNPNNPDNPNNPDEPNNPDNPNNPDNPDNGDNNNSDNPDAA
Method: as §1, §2

proteinase K = target: T2, proteinase K (Parengyodontium album, UniProt P06873); assay: as above; assay type: in vitro ADME; conditions: 30 μM peptide, 100 mM Tris-HCl pH 8.0 with 5 mM CaCl2, enzyme:peptide 1:50 or 1:10 (w/w), 3 hours, 37 °C; residual activity by radial diffusion assay on B. subtilis; triplicate
T2 construct: purchased A&A Biotechnology
T2 sequence (P06873 106-384): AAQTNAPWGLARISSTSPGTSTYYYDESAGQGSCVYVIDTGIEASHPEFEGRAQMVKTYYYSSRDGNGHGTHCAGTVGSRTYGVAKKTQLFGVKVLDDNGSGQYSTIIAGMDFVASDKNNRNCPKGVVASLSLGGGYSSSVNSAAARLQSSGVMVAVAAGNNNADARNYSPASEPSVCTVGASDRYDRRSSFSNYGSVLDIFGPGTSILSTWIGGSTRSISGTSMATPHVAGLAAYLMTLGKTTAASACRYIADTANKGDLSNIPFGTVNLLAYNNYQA
Method: as §1
(§3) The temperature stability of BacSp222 (30 μM final concentration) was determined in PBS. The solution was incubated for 1 or 3 h at 72 °C (typical temperature of pasteurization) or at 100 °C. Independently, a solution of bacteriocin was also subjected to a full cycle of autoclaving (20 min at 121 °C). The susceptibility of BacSp222 to proteolysis was verified using S. aureus staphopain C and V8 peptidase, human neutrophil elastase, human cathepsin G (Biocentrum), bovine TPCK-treated trypsin, pepsin from porcine gastric mucosa (Sigma), and proteinase K (A&A Biotechnology). The dried samples of BacSp222 were dissolved to a final concentration of 30 μM in the following buffers: 100 mM Tris-HCl pH 8.0 containing 5 mM CaCl2 (for trypsin and proteinase K), 100 mM Tris-HCl pH 7.5 containing 5 mM cysteine hydrochloride and 5 mM EDTA (for staphopain C), 100 mM Tris-HCl pH 8.0 (for elastase), 100 mM Tris-HCl pH 7.5 containing 500 mM NaCl (for cathepsin G), 100 mM sodium phosphate pH 7.8 (for V8 peptidase), and 100 mM ammonium acetate pH 4.0 (for pepsin). The peptidases were added at 1:50 or 1:10 (enzyme:BacSp222) ratios by weight, and the mixtures were incubated for 1 or 3 h at 37 °C. The residual activity was determined with the radial diffusion assay using Bacillus subtilis as an indicator strain. All of the above experiments were performed in triplicate.

[3] = target: T3, bovine TPCK-treated trypsin (Bos taurus, UniProt P00760); assay: as above; assay type: in vitro ADME; conditions: 30 μM peptide, 100 mM Tris-HCl pH 8.0 with 5 mM CaCl2, enzyme:peptide 1:50 or 1:10 (w/w), 3 hours, 37 °C; residual activity by radial diffusion assay on B. subtilis; triplicate
T3 construct: purchased Sigma
T3 sequence (P00760 24-246): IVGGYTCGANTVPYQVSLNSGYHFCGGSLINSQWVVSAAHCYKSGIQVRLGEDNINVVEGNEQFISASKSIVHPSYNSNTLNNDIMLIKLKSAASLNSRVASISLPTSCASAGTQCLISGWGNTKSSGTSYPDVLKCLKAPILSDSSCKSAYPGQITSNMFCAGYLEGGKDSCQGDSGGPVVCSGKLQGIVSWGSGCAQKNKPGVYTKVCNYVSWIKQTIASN
Method: as §1, §3

[4] = target: T4, pepsin from porcine gastric mucosa (Sus scrofa, UniProt P00791); assay: as above; assay type: in vitro ADME; conditions: 30 μM peptide, 100 mM ammonium acetate pH 4.0, enzyme:peptide 1:50 or 1:10 (w/w), 3 hours, 37 °C; residual activity by radial diffusion assay on B. subtilis; triplicate
T4 construct: purchased Sigma; host or cells: porcine gastric mucosa
T4 sequence (P00791 60-385): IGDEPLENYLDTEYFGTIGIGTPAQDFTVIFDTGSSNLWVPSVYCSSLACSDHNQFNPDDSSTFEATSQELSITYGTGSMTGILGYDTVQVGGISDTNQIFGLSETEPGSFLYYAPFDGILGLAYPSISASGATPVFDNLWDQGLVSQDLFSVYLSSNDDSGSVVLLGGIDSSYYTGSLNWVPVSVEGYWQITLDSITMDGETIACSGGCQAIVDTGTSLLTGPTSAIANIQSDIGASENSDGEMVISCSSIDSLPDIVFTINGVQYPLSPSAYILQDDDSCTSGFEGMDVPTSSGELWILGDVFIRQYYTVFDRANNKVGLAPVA
Method: as §1, §3

human cathepsin G = target: T5, human cathepsin G (Homo sapiens, UniProt P08311); assay: as above; assay type: in vitro ADME; conditions: 30 μM peptide, 100 mM Tris-HCl pH 7.5 with 500 mM NaCl, enzyme:peptide 1:50 or 1:10 (w/w), 3 hours, 37 °C; residual activity by radial diffusion assay on B. subtilis; triplicate
T5 construct: purchased Biocentrum
T5 sequence (P08311 21-255): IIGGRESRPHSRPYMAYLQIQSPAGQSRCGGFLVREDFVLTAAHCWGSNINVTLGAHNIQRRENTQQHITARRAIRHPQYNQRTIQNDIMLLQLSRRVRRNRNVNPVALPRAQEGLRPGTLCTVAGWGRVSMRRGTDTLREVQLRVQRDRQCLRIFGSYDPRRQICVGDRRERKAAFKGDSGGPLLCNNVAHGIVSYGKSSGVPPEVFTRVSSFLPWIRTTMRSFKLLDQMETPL
Method: as §1, §3

FPRL-1 = target: T6, FPRL-1 (Homo sapiens, UniProt P25090); assay: Formyl peptide receptor assay, cAMP-GLO, recombinant CHO-K1 cells; assay type: cell-based; conditions: 10 pM–5 μM BacSp222, CHO-K1 cells overexpressing FPRL-1, cAMP-GLO; fMLP positive control (data not shown)
T6 construct: host or cells: CHO-K1
T6 sequence (P25090 whole entry): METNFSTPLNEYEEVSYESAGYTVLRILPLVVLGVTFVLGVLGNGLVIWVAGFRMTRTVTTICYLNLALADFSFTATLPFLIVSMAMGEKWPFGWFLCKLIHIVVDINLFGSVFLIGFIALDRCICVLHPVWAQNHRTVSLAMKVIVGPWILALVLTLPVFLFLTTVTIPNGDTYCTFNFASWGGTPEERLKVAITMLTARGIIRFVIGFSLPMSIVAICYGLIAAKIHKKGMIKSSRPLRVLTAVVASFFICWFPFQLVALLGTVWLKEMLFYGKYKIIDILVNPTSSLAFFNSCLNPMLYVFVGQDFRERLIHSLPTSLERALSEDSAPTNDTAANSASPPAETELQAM
Method: Activation of the cellular formyl-peptide receptor was assayed using cAMPZen FroZen N-formyl peptide (FPRL1) human recombinant CHO-K1 cells (Perkin-Elmer) and a cAMP-GLO bioluminescent assay (Promega) largely according to the protocols provided by the manufacturers. Formyl-methionyl-leucyl-phenylalanine peptide (fMLP, Sigma) was used as a positive control, and the BacSp222 concentrations tested were 0.01, 0.1, 1.0, 10, 100, 1000, and 5000 nM.

For-MAGLLRFLLSKGRALYNWAKSHVGKVWEWLKSGATYEQIKEWIENALGWR [BacSp222]
leakage of GFP from recombinant cells (E. coli DH5α (pALCP2G)): not
activity against the indicator strain after autoclaving [1]: 55 ± 8.8%
hydrodynamic diameter estimated by DLS [2]: 3.68 nm
activity of BacSp222 after incubation with the enzyme (staphopain C (StpC)): not significantly reduced
activity of BacSp222 after incubation with the enzyme (V8 peptidase): not significantly reduced
activity of BacSp222 after incubation with the enzyme (proteinase K): not significantly reduced
activity of BacSp222 after incubation with the enzyme [3]: not significantly reduced
activity of BacSp222 after incubation with the enzyme [4]: not significantly reduced
activity of BacSp222 after incubation with the enzyme (human cathepsin G): not significantly reduced
stimulation of formyl-peptide receptor (FPRL-1): not able to stimulate; also recorded: did not activate
